Each block holds one compound with its values, some of them ahead of it. Calls of active or inactive are those of the source. The calls are words filed in the database; no cut-off is given here.
Tests used:
[1] = target: T1, Lysine-specific demethylase 4D (Homo sapiens) (UniProt Q6B0I6); test: Inhibition of GST-tagged KDM4D (unknown origin) expressed in Escherichia coli DH5alpha assessed as histone demethylation activity using H3K9me3 as substrate incubated for 4 hrs in presence of FLAG-histone H3 measured by Western blot analysis; conditions: dose 2.5-20 µM
T1 sequence (whole entry): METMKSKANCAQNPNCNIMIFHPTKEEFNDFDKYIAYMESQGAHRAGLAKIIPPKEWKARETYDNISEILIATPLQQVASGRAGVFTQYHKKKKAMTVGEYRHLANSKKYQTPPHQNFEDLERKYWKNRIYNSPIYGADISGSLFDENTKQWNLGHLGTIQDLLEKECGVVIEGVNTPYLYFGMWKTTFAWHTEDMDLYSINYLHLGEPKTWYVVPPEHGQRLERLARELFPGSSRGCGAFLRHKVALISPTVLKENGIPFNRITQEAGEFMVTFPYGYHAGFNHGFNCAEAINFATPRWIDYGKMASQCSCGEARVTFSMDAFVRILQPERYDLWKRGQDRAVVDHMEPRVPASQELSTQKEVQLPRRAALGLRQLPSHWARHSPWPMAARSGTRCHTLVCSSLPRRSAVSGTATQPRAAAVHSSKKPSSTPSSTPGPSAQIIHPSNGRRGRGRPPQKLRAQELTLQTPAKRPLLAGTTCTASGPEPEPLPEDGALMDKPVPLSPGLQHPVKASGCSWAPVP

HepG2 = test: Antiproliferative activity against human HepG2 cells assessed as reduction in cell viability measured after 72 hrs by MTT assay; type: functional, cell-based
HCT-116 [2] = test: Inhibition of cell migration in human HCT-116 cells incubated for 12 to 36 hrs by wound healing assay; type: functional, cell-based; conditions: dose 10-20 µM, time lower 12.0 hrs, time upper […]
SW480 [3] = test: Antiproliferative activity against human SW480 cells assessed as reduction in cell viability measured after 72 hrs by MTT assay; type: functional, cell-based; conditions: SW480, 72 h
NCI-H1792 = test: Antiproliferative activity against human NCI-H1792 cells assessed as reduction in cell viability measured after 72 hrs by MTT assay; type: functional, cell-based
Huh-7 = test: Antiproliferative activity against human Huh-7 cells assessed as reduction in cell viability measured after 72 hrs by MTT assay; type: functional, cell-based
SW480 [4] = test: Inhibition of colony formation in human SW480 cells incubated for 7 days by crystal violet staining based assay; type: functional, cell-based; conditions: dose 2.5-10 µM, time 7.0 day
FaDu = test: Antiproliferative activity against human FaDu cells assessed as reduction in cell viability measured after 72 hrs by MTT assay; type: functional, cell-based
[5] = target: T1, Lysine-specific demethylase 4D (Homo sapiens); test: Inhibition of KDM4D in human HCT-116 cells assessed as reduction in beta-catenin protein expression incubated for 48 hrs measured by Western blot analysis; type: cell-based; conditions: dose 2.5-20 µM
DU-145 = test: Antiproliferative activity against human DU-145 cells assessed as reduction in cell viability measured after 72 hrs by MTT assay; type: functional, cell-based
SW-620 [6] = test: Antiproliferative activity against human SW-620 cells assessed as reduction in cell viability measured after 72 hrs by MTT assay; type: functional, cell-based; conditions: SW-620, 72 h
A549 = test: Antiproliferative activity against human A549 cells assessed as reduction in cell viability measured after 72 hrs by MTT assay; type: functional, cell-based
HCT-116 [7] = test: Antiproliferative activity against human HCT-116 cells assessed as reduction in cell viability measured after 72 hrs by MTT assay; type: functional, cell-based; conditions: HCT-116, 72 h
SW-620 [8] = test: Inhibition of colony formation in human SW-620 cells incubated for 7 days by crystal violet staining based assay; type: functional, cell-based; conditions: dose 2.5-10 µM, time 7.0 day
HCT-116 [9] = test: Downregulation of KDM4D expression in human HCT-116 cells at 2.5 to 20 uM incubated for 48 hrs measured by Western blot analysis; type: functional, cell-based; conditions: dose 2.5-20 µM
SMMC-7721 = test: Antiproliferative activity against human SMMC-7721 cells assessed as reduction in cell viability measured after 72 hrs by MTT assay; type: functional, cell-based
[10] = target: T1, Lysine-specific demethylase 4D (Homo sapiens); test: Inhibition of KDM4D in human HCT-116 cells assessed as reduction in c-myc protein expression incubated for 48 hrs measured by Western blot analysis; type: cell-based; conditions: dose 2.5-20 µM
HCT-116 [11] = test: Inhibition of cell migration in human HCT-116 cells at 10 to 20 uM by wound healing assay; type: functional, cell-based; conditions: dose 10-20 µM, time lower 12.0 hrs, time upper […], TDE = time-dependent effect
HCT-116 [12] = test: Inhibition of cell migration in human HCT-116 cells at 20 uM incubated for 36 hrs by wound healing assay; type: functional
HCT-116 [13] = test: Inhibition of colony formation in human HCT-116 cells incubated for 7 days by crystal violet staining based assay; type: functional, cell-based; conditions: dose 2.5-10 µM, time 7.0 day
HCT-116 [14] = test: Inhibition of cell migration in human HCT-116 cells by crystal violet staining based transwell assay; type: functional; conditions: dose 2.5-10 µM
HCT-116 [15] = test: Inhibition of cell migration in human HCT-116 cells at 10 uM incubated for 36 hrs by wound healing assay; type: functional
[16] = target: T1, Lysine-specific demethylase 4D (Homo sapiens); test: Inhibition of KDM4D in human HCT-116 cells assessed as reduction in Gli1 protein expression incubated for 48 hrs measured by Western blot analysis; type: cell-based; conditions: dose 2.5-20 µM
HeLa = test: Antiproliferative activity against human HeLa cells assessed as reduction in cell viability measured after 72 hrs by MTT assay; type: functional, cell-based
[17] = target: T1, Lysine-specific demethylase 4D (Homo sapiens); test: Inhibition of human KDM4D expressed in Escherichia coli BL21 (DE3) at 1 uM using biotinylated H3-derived peptide and 2-OG as substrate preincubated for 15 mins followed by substrate addition and measured after 1 hr by AlphaLISA assay; conditions: time 75.0 min
[18] = Inhibition of KDM7B (unknown origin) by AlphaLISA assay; set-up: species or system Homo sapiens
[19] = target: T2, Lysine-specific demethylase 4D (Homo sapiens, UniProt Q6B0I6); test: Inhibition of KDM4D (unknown origin)
T2 sequence (Q6B0I6 whole entry): T1 sequence (whole entry)

inhibition [1]: Dose-Dependent Effect
IC50 (SW480 [3]): 10.7 µM
inhibition [5]: Dose-Dependent Effect
IC50 (SW-620 [6]): 19.2 µM
IC50 (HCT-116 [7]): 10.7 µM
inhibition [10]: Dose-Dependent Effect
inhibition [16]: Dose-Dependent Effect
inhibition [17]: 99.5%
IC50 [18]: 82.7 µM
Structure (SMILES): CC(C)(C)OC(=O)N[C@@H]1CCN(C(c2ccc(-c3ccncc3)cc2)c2cc3c(cc2O)OCO3)C1 (some centres not stated)
Activity (HepG2): Active
inhibition (HCT-116 [2]): Dose-Dependent Effect
Activity (NCI-H1792): Active
Activity (Huh-7): Active
inhibition (SW480 [4]): Dose-Dependent Effect
Activity (FaDu): Active
Activity (DU-145): Active
Activity (A549): Active
inhibition (SW-620 [8]): Dose-Dependent Effect
inhibition (HCT-116 [9]): Active
Activity (SMMC-7721): Active
inhibition (HCT-116 [11]): Tde
inhibition at 20 µM (HCT-116 [12]): 94.1%
inhibition (HCT-116 [13]): Dose-Dependent Effect
inhibition (HCT-116 [14]): Dose-Dependent Effect
inhibition at 10 µM (HCT-116 [15]): 42.4%
Activity (HeLa): Active

IC50 [19]: 0.29 µM
Structure (SMILES): Clc1ccc(N/N=C(\c2ccccc2)c2ccccn2)nc1
